Test results reported in US7384916B2, “Methods and compositions for preventing and treating aging or photodamaged skin” (ProCyte Corporation, priority 2005, dated 2008).

What was measured:
Format in all cases: cell-based
[1] = test system: Normal human dermal fibroblasts; assay: Stimulation of collagen type I formation in fibroblasts (sandwich ELISA of culture media); conditions: for ELISA Collagen Type I / ELISA Collagen Type I (% Increase): 3 days; for ELISA Collagen Type I: low glucose media with 2% serum, control 48; for ELISA Collagen Type I (% Increase): vs 0 ug/ml control
Experimental: The effect of peptide manganese complexes on collagen formation was determined by determining the amount of collagen type I produced by human fibroblasts in cell culture. Normal human dermal fibroblasts were seeded into a 96-well cell culture plate and grown to confluence in high glucose media supplemented with 10% fetal calf serum for 3 days. The fibroblasts were then placed in low glucose media with 2% serum and various amounts of a representative peptide manganese complex. After 3 days, the culture media was collected and analyzed for collagen type I content by a sandwich ELISA assay using purified antibody to collagen type I.

[2] = test system: Normal human dermal fibroblasts; assay: Viability of dermal fibroblasts (neutral red stain); conditions: for Neutral Red Stain - Cell Viability: 3 days, control 212
Experimental: (§1) The effect of peptide manganese complexes on the growth and viability of fibroblasts was determined. Normal human dermal fibroblasts were seeded into a 96-well cell culture plate and grown to confluence in high glucose media supplemented with 10% fetal calf serum for 3 days. The fibroblasts were then placed in low glucose media with 2% serum and various amounts of a representative peptide manganese complex. After 3 days, the cells were incubated with neutral red to assess their viability and stained with sulforhodamin B and counted to determine the number of cells.

[3] = test system: Normal human dermal fibroblasts; assay: Proliferation of dermal fibroblasts (sulforhodamin B stain, cell number); conditions: for Sulforhodamin B Stain - Cell Number / Sulforhodamin B Stain - Cell Number (% Increase): 3 days; for Sulforhodamin B Stain - Cell Number: control 313; for Sulforhodamin B Stain - Cell Number (% Increase): vs 0 ug/ml control
Experimental: as §1

glycyl-L-histidyl-L-lysine:manganese(II)
ELISA Collagen Type I ([1]; 10 ug/ml complex): 61.5
ELISA Collagen Type I (% Increase) ([1]; 10 ug/ml complex): +28%
ELISA Collagen Type I ([1]; 100 ug/ml complex): 102.5
ELISA Collagen Type I (% Increase) ([1]; 100 ug/ml complex): +129%
Effect on formation of collagen type I (in words) ([1]; summary of Table 4): stimulated the formation of collagen type I
Neutral Red Stain - Cell Viability ([2]; 10 ug/ml complex): 231
Neutral Red Stain - Cell Viability ([2]; 100 ug/ml complex): 253
Effect on viability of normal human dermal fibroblasts (in words) ([2]; summary of Table 6): increased their viability
Sulforhodamin B Stain - Cell Number ([3]; 10 ug/ml complex): 383
Sulforhodamin B Stain - Cell Number (% Increase) ([3]; 10 ug/ml complex): +22%
Sulforhodamin B Stain - Cell Number ([3]; 100 ug/ml complex): 535
Sulforhodamin B Stain - Cell Number (% Increase) ([3]; 100 ug/ml complex): +71%
Effect on proliferation of normal human dermal fibroblasts (in words) ([3]; summary of Table 5): stimulated the proliferation
